Patent US11673933B2, “Method for using insulin degludec for the improvement of glycemic control and reduction of acute and long-term diabetes complications” (Novo Nordisk A/S, priority 2016, dated 2023)

How the values were obtained:
[1] = tested on: adult human subjects with type 2 diabetes at high risk for cardiovascular events; experiment: Example 1 cardiovascular outcomes trial (DEVOTE), insulin degludec vs insulin glargine: SMPG and blood pressure variability; assay type: in vivo
Protocol: (§1) A long-term, multi-centre, multi-national, randomised, double-blind, parallel-group, active comparator-controlled trial with 7637 human subjects was carried out with treatment that would continue until at least 633 positively adjudicated primary cardiovascular events were accrued. This trial concerned incidence of cardiovascular events in adult human subjects with type 2 diabetes that were at high risk for cardiovascular events, including such subjects with existing cardiovascular disease. The primary objective of this trial was to confirm the cardiovascular safety of insulin degludec compared to that of insulin glargine. The secondary objective was to assess efficacy of insulin degludec on markers of glycaemic control and to assess safety on other parameters in subjects with type 2 diabetes that were at high risk for cardiovascular events.
Subjects were randomised 1:1 in a double-blinded manner to receive blinded insulin degludec or blinded insulin glargine, each added to standard of care. […] For subjects receiving premixed/biphasic insulin OD, the basal component was calculated and transferred unit-to-unit to investigational product OD. The bolus insulin component was calculated and transferred unit-to-unit to bolus insulin and given at the most appropriate meal at the investigator's discretion. For subjects receiving premixed/biphasic insulin twice daily (or more), the total basal component was calculated, reduced by 20-30% and transferred to investigational product OD; the bolus component was to be calculated and transferred to insulin aspart and dosed with the most appropriate meals at the investigator's discretion. […]
Subjects adjusted their basal insulin dose weekly, aiming for a pre-breakfast (fasting) SMPG value of 71-90 mg/dL (4.0-5.0 mmol/L) by using the algorithm in Table 6. The basal dose was adjusted based on the lowest of three pre-breakfast SMPG values, preferably measured two days prior to dose adjustment and on the day of the dose adjustment. […]

[2] = tested on: individuals with type 2 diabetes and established cardiovascular risk (MACE); experiment: CV risk model based on the DEVOTE trial: MACE hazard ratio IDeg/IGlar by CV risk score and subgroup; assay type: in vivo, human
Protocol: as §1
The results of this trial may be presented herein as a number or fraction of subjects experiencing an event. Alternatively, the results of this trial may be presented with hazard ratios estimated in a Cox proportional hazard model, which is the standard statistical model used for estimating time to an event. The term “hazard ratio” (also referred to as “HR”) as used herein means the instantaneous risk ratio of experiencing an event when administered insulin degludec compared to insulin glargine which are the two treatments in this trial. An upper limit of the 95% confidence interval (CI) for the HR of less than 1.00 means that the estimated treatment ratio between insulin degludec and insulin glargine with respect to the event of interests is statistically significant in favour of insulin degludec on a 5% significance level. A 5% significance level is the standard level for investigating significance in clinical trials.
Based on the DEVOTE trial, a cardiovascular (CV) risk score has been developed for individuals with established cardiovascular risk. This risk score was developed using available medical history, baseline information and cardiovascular events occurring during the trial. […] The variables are listed in descending order according to their impact on the overall risk of major adverse cardiovascular events (MACE), here consisting of cardiovascular death, non-fatal myocardial infarction, or non-fatal stroke. The combination of these variables yields an algorithm that can be used to determine the risk of future MACEs and to determine the benefit of being treated with IDeg compared to IGlar.
The CV risk score and estimated MACE hazard ratio for CV risk scores by quartiles based on number of events are presented in FIG. 1. […] This benefit is seen regardless of which of the individual predictors contribute to the high score.
For example, subjects with a BMI ≥30 kg/m^2 and diastolic blood pressure ≥80 mmHg, and subjects with a diastolic blood pressure ≥80 mmHg who were treated with statins would have a benefit with IDeg compared to IGlar in terms of risk of MACE (Table 25).

[3] = tested on: human subjects with type 2 diabetes inadequately controlled with basal insulin and metformin; conditions: in vivo
Protocol: (§2) A 26-week randomised, parallel two-arm, double-blind, multi-centre, multinational, treat-to-target trial in 413 human subjects with type 2 diabetes inadequately controlled with basal insulin and metformin with or without SU or glinides was carried out comparing the efficacy and safety of insulin degludec+liraglutide (Xultophy®, IDegLira) once daily with insulin degludec (Tresiba®, IDeg) once daily both added on to metformin. […] The secondary objective was to compare the overall efficacy and safety parameters of IDegLira and IDeg after 26 weeks of treatment. All trial endpoints were collected and assessed throughout the entire duration of the trial.
(§3) Eligible subjects were randomised 1:1 to either once daily IDegLira or once daily IDeg, both in combination with metformin. […] For each subject, the duration of the trial was to be approximately 29 weeks: up to 2 weeks between screening and first treatment, 26 weeks of treatment and at least 1 week of wash-out at the end of the trial.
(§4) The IDegLira dosing unit is defined as a dose step. One (1) IDegLira dose step consists of 1 unit insulin degludec and 0.036 mg liraglutide. Treatment with IDegLira was initiated at 16 dose steps containing 16 units insulin degludec and 0.6 mg liraglutide. Adjustment of the IDegLira dose was performed twice weekly based on the mean of 3 preceding daily fasting SMPG values on 3 consecutive days. Adjustments occurred in 2 dose steps aiming at a fasting glycaemic target of 4.0-5.0 mmol/L (72-90 mg/dL). The maximum allowed dose was 50 dose steps (50 units IDeg/1.8 mg liraglutide). IDeg treatment was initiated with 16 units, and titrated twice weekly to the fasting glycaemic target of 4.0-5.0 mmol/L (72-90 mg/dL) based on the mean fasting SMPG from 3 proceeding measurements as described for IDegLira. The maximum allowed dose was 50 units.
(§5) Subjects received IDegLira or IDeg by subcutaneous administration in addition to metformin. IDegLira or IDeg was injected subcutaneously in the thigh, upper arm (deltoid region) or abdomen once daily preferably at the same time every day. The injection area chosen were to remain unchanged throughout the trial, but rotation within the area was recommended.

[4] = tested on: human subjects with type 2 diabetes inadequately controlled with basal insulin and metformin; experiment: Example 4: 26-week double-blind trial, IDegLira vs IDeg, both added to metformin
Protocol: as §2, §3, §4, §5

In the case of “N^εB29-(N^α-(HOOC(CH2)14CO)-γ-Glu) desB30 human insulin [IDeg]”, the “Systolic Blood Pressure variability, Rate” value [1] is reported as 0.94, the “8PP SMPG - Within-day variability, Rate” value ([1]; relative fluctuation of 8-point profile, log scale ANOVA) is reported as 0.98 and the “Pre-breakfast SMPG - between-day variability, Rate” value ([1]; variances analysed on log scale, ANOVA) is reported as 0.90. The “HR (MACE, IDeg/IGlar)” value ([2]; CV risk score High) was 1.04, the “HR (MACE, IDeg/IGlar)” value ([2]; CV risk score Low) was 1.02 and the “HR (MACE, IDeg/IGlar)” value ([2]; CV risk score Moderate) was 0.89. For the same substance, the “HR (MACE, IDeg/IGlar)” value ([2]; CV risk score Very High) was 0.67, the “hazard ratio IDeg/IGlar (risk of MACE)” value ([2]; patients who have a high CV risk score) was < 1 and the “Estimate (risk of MACE, IDeg compared to IGlar)” value ([2]; subgroup: Age 65-75 years AND systolic blood pressure < 140 mmHg) was 0.70. The “Estimate (risk of MACE, IDeg compared to IGlar)” value ([2]; subgroup: Age < 65 years AND diastolic blood pressure ≥ 80 mmHg) was 0.64, the “Estimate (risk of MACE, IDeg compared to IGlar)” value ([2]; subgroup: Age < 65 years AND treated with statins) was 0.75 and the “Estimate (risk of MACE, IDeg compared to IGlar)” value ([2]; subgroup: BMI ≥ 30 kg/m^2 AND diastolic blood pressure ≥ 80 mmHg) was 0.68. The “Estimate (risk of MACE, IDeg compared to IGlar)” value ([2]; subgroup: Diastolic blood pressure < 90 mmHg AND HDL ≥ 1.0 mmol/L) was 0.80, the “Estimate (risk of MACE, IDeg compared to IGlar)” value ([2]; subgroup: Diastolic blood pressure ≥ 80 mmHg AND treated with statins) was 0.73 and the “Estimate (risk of MACE, IDeg compared to IGlar)” value ([2]; subgroup: Diastolic blood pressure ≥ 80 mmHg AND triglycerides > 1.7 mmol/L) was 0.69. For the same substance, the “Estimate (risk of MACE, IDeg compared to IGlar)” value ([2]; subgroup: Established CV risk AND HDL ≥ 1.0 mmol/L) was 0.78, the “Estimate (risk of MACE, IDeg compared to IGlar)” value ([2]; subgroup: Established CV risk AND diastolic blood pressure ≥ 80 mmHg) was 0.76 and the “Estimate (risk of MACE, IDeg compared to IGlar)” value ([2]; subgroup: Established CV risk AND pulse ≥ 70 bpm) was 0.80. The “Estimate (risk of MACE, IDeg compared to IGlar)” value ([2]; subgroup: Height <170 cm AND treated with statins) was 0.75, the “Estimate (risk of MACE, IDeg compared to IGlar)” value ([2]; subgroup: Non-White AND diastolic blood pressure < 90 mmHg) was 0.64 and the “Estimate (risk of MACE, IDeg compared to IGlar)” value ([2]; subgroup: Not Hispanic or Latino AND Non-White) was 0.64. The “Estimate (risk of MACE, IDeg compared to IGlar)” value ([2]; subgroup: Not Hispanic or Latino AND triglycerides > 1.7 mmol/L) was 0.79, the “Estimate (risk of MACE, IDeg compared to IGlar)” value ([2]; subgroup: Previous smoker AND age < 65 years) was 0.73 and the “Estimate (risk of MACE, IDeg compared to IGlar)” value ([2]; subgroup: Previous smoker AND cholesterol ≥ 3 mmol/L) was 0.79. The “Estimate (risk of MACE, IDeg compared to IGlar)” value ([2]; subgroup: Previous smoker AND diastolic blood pressure ≥ 80 mmHg) was 0.66, the “Estimate (risk of MACE, IDeg compared to IGlar)” value ([2]; subgroup: Previous smoker AND treated with statins) was 0.79 and the “Estimate (risk of MACE, IDeg compared to IGlar)” value ([2]; subgroup: Previous smoker AND triglycerides > 1.7 mmol/L) was 0.73. The “Estimate (risk of MACE, IDeg compared to IGlar)” value ([2]; subgroup: Pulse ≥ 70 bpm AND diastolic blood pressure ≥ 80 mmHg) was 0.74, the “Estimate (risk of MACE, IDeg compared to IGlar)” value ([2]; subgroup: Pulse ≥ 70 bpm AND triglycerides > 1.7 mmol/L) was 0.76 and the “Estimate (risk of MACE, IDeg compared to IGlar)” value ([2]; subgroup: Pulse ≥ 70 mmHg AND treated with statins) was 0.72. The “Estimate (risk of MACE, IDeg compared to IGlar)” value ([2]; subgroup: Systolic blood pressure <140 mmHg AND HDL ≥ 1.0 mmol/L) was 0.73, the “Estimate (risk of MACE, IDeg compared to IGlar)” value ([2]; subgroup: Triglycerides > 1.7 mmol/L AND HDL ≥ 1.0 mmol/L) was 0.69 and the “Estimate (risk of MACE, IDeg compared to IGlar)” value ([2]; subgroup: Triglycerides > 1.7 mmol/L AND treated with statins) was 0.78. The “Adverse event and tolerability profiles” value [3] was “consistent with previous findings”, the ΔHeart rate [3] was −0.6 bpm and the Free fatty acids ([4]; Baseline) was 0.5 mmol/L. It also gave an HDL cholesterol ([4]; Baseline) of 1.2 mmol/L, an LDL cholesterol ([4]; Baseline) of 2.4 mmol/L and a Total cholesterol ([4]; Baseline) of 4.6 mmol/L. It also gave a Triglycerides ([4]; Baseline) of 1.8 mmol/L, a VLDL cholesterol ([4]; Baseline) of 0.8 mmol/L and a Free fatty acids ([4]; End of trial (26 weeks)) of 0.4 mmol/L. It also gave an HDL cholesterol ([4]; End of trial (26 weeks)) of 1.2 mmol/L, an LDL cholesterol ([4]; End of trial (26 weeks)) of 2.4 mmol/L and a Total cholesterol ([4]; End of trial (26 weeks)) of 4.5 mmol/L. For the same substance, the Triglycerides ([4]; End of trial (26 weeks)) was 1.6 mmol/L, the VLDL cholesterol ([4]; End of trial (26 weeks)) was 0.7 mmol/L and the ΔDiastolic blood pressure ([4]; change from baseline, 26 weeks) was −0.7 mmHG. The ΔSystolic blood pressure ([4]; change from baseline, 26 weeks) was −1.7 mmHG.
